In US20240425464A1, “Substituted Monohydrazides as Potent Antifungal Agents” (University of Kentucky Research Foundation, priority 2023, published 2024):
Converted amounts (≈) assume the structure as drawn. Like-named read-outs stand apart in the source and are kept apart here.

Columns and labels:
Assay type in all cases: cell-based, Candida albicans
[1] = system: C. albicans ATCC MYA-2876 (C); test: MIC determination by in vitro antifungal assay; conditions: strain C = C. albicans ATCC MYA-2876(S)
Experimental: (§1) 10 mg/mL stock solutions of compounds 1a-9j were prepared in dimethyl sulfoxide (DMSO) and were stored at −20° C. in the dark. The antifungal agent amphotericin B (AmB) was purchased from VWR (Radnor PA, USA). AmB was dissolved in DMSO at a final concentration of 5 mg/mL and was stored at −20° C., protected from light. Candida albicans American Type Culture Collection (ATCC) 10231 (strain A), C. albicans ATCC 64124 (B), and C. albicans ATCC MYA-2876 (C) were obtained from Utah State University. C. albicans ATCC 90819 (D), C. albicans ATCC MYA-2310 (E), C. albicans ATCC MYA-1237 (F), C. albicans ATCC MYA-1003 (G), Candida glabrata ATCC 2001 (H), Candida krusei ATCC 6258 (I), Candida parapsilosis ATCC 22019 (J), Cryptococcus neoformans ATCC MYA-895 (M), Aspergillus terreus ATCC MYA-3633 (N), and Aspergillus flavus ATCC MYA-3631 (0) were obtained from the American Type Culture Collection (ATCC; Manassas, VA, USA). Aspergillus nidulans ATCC 38163 (P) was obtained from University of Kentucky. Clinically derived Aspergillus fumigatus NRRL 163 (Q), A. fumigatus NRRL 5109 (R), and A. fumigatus NRRL 6113 (S) were obtained from Northern Regional Research Laboratory (NRRL). Candida auris 384 (K), C. auris 390 (L), and fungal strains 381-400 (including 10 C. auris (AR Bank #381-390), 3 Candida duobushaemulonii (AR Bank #391, AR Bank #392, and AR Bank #394), 2 Candida haemulonii (AR Bank #393 and AR Bank #395), 1 Kodameae ohmeri (AR Bank #396), 1 C. krusei (AR Bank #397), 1 Candida lusitaniae (AR Bank #398), and 2 Saccharomyces cerevisiae strains (AR Bank #399 and AR Bank #400)) were part of a larger fungal library from the AR Bank maintained by the Centers for Disease Control and Prevention (CDC; Atlanta, GA, USA). Filamentous fungi and yeasts were cultivated at 35° C. in RPMI 1640 medium (with L-glutamine, without sodium bicarbonate, Sigma-Aldrich, St. Louis, MO) buffered to a pH of 7.0 with 0.165 M morpholinepropanesulfonic acid (MOPS) buffer (Sigma-Aldrich). For cytotoxicity assays, HepG2 and the mouse macrophage cell line J774A.1 were obtained from University of Kentucky. The human embryonic kidney cell line, HEK-293, was bought from the ATCC. Mammalian cells were grown in Dulbecco's Modified Eagle's Medium (DMEM) (from VWR) with 10% fetal bovine serum (FBS) (from VWR) and 1% Pen/Strep (from ATCC). Cell lines were cultured at 37° C. with 5% CO2 and passaged by trypsinization with 0.05% trypsin: 0.53 mM EDTA (from Sigma-Aldrich).
(§2) The MIC values of compounds 1a-9j against yeast cells (strains A-P and 381-400) were determined in 96-well plates as described in the CLSI documents M27-A3 and M38-A2 with minor modifications.^2 A single colony of freshly prepared yeast cells was used to inoculate 5 mL of yeast extract peptone dextrose (YPD) broth prior to incubation overnight with shaking at 200 rpm at 35° C. From the actively growing yeast culture, 100 µL were then transferred to 900 μL of RPMI 1640 medium and re-adjusted to achieve OD600 of 0.12 (˜1×10^6 CFU/mL). The cell suspension was further diluted to achieve 1:100 in RPMI 1640 medium. 100 μL of cells were added to the wells of a 96-well microtiter plates that contained 100 µL of the compound solution to obtain concentrations of 0.06-31.3 μg/mL of compounds 1a-9j or AmB prior to incubation for 48 h at 35° C. […]

[2] = system: C. albicans ATCC 64124 (B); test: MIC determination by in vitro antifungal assay
Experimental: as §1, §2

[3] = system: C. albicans ATCC MYA-2310 (E); test: MIC determination by in vitro antifungal assay; conditions: strain E = C. albicans ATCC MYA-2310
Experimental: as §1, §2

[4] = system: C. albicans ATCC MYA-1237 (F); test: MIC determination by in vitro antifungal assay; conditions: strain F = C. albicans ATCC MYA-1237(R)
Experimental: as §1, §2

[5] = system: C. albicans ATCC 90819 (D); test: MIC determination by in vitro antifungal assay
Experimental: as §1, §2

[6] = system: C. albicans ATCC MYA-1003 (G); test: MIC determination by in vitro antifungal assay; conditions: strain G = C. albicans ATCC MYA-1063(R) (footnote), MYA-1003 in text
Experimental: as §1, §2

[7] = system: C. albicans ATCC 10231 (strain A); test: MIC determination by in vitro antifungal assay (CLSI broth dilution); conditions: strain A = C. albicans ATCC 10231, no visible growth, 48 h at 35° C.
Experimental: as §1, §2

[8] = strain B = C. albicans ATCC 64124
[9] = strain D = C. albicans ATCC 90819(R)
[10] = Candida albicans, read-out: MIC
[11] = Candida albicans, ATCC64124, strain B = C. albicans ATCC 64124, read-out: MIC
[12] = Candida albicans, ATCC90819, strain D = C. albicans ATCC 90819(R), read-out: MIC
[13] = Candida albicans, ATCC10231, 48 h, read-out: MIC

| SMILES | MIC [1] [μg/mL^−1] | MIC [2, 8] [μg/mL^−1] | MIC [3] [μg/mL^−1] | MIC [4] [μg/mL^−1] | MIC [5, 9] [μg/mL^−1] | MIC [6] [μg/mL^−1] | MIC [7] [μg/mL^−1] | MIC [1, 10] [µg/mL] | MIC [2, 11] [µg/mL] | MIC [3, 10] [µg/mL] | MIC [4, 10] [µg/mL] | MIC [5, 12] [µg/mL] | MIC [6, 10] [µg/mL] | MIC [7, 13] [µg/mL] |
| --- | --- | --- | --- | --- | --- | --- | --- | --- | --- | --- | --- | --- | --- | --- |
| COc1ccc(NNC(=O)c2ccc(F)cn2)cc1 [Compound 3f] | 0.98 | 0.98 | 0.98 | 0.49 | 0.98 | 0.49 | 0.24 |  |  |  |  |  |  |  |
| O=C(NNc1ccc(F)cc1F)c1ncc(F)cc1F [Compound 7g] |  |  |  |  |  |  |  | 3.9 (≈ 13.7 µM) | 3.9 (≈ 13.7 µM) | 3.9 (≈ 13.7 µM) | 3.9 (≈ 13.7 µM) | 3.9 (≈ 13.7 µM) | 1.95 (≈ 6.84 µM) | 0.98 (≈ 3.44 µM) |
| O=C(NNc1ccc(Cl)cc1)c1cccc(F)n1 [Compound 5e] | 1.95 | 1.95 | 1.95 | 0.98 | 3.9 | 0.98 | 1.95 |  |  |  |  |  |  |  |
| O=C(NNc1cccc(Cl)c1)c1ccccn1 [Compound 2b] | 0.98 | 0.98 | 0.98 | 0.98 | 0.49 | 0.49 | 0.12 |  |  |  |  |  |  |  |
| O=C(NNc1ccc(Cl)cc1)c1cnccn1 [Compound 9e] | 3.9 | 1.95 | 1.95 | 0.98 | 0.98 | 1.95 | 0.98 |  |  |  |  |  |  |  |
| O=C(NNc1ccc(F)cc1F)c1ccc(Br)cn1 [Compound 4g] |  |  |  |  |  |  |  | 0.98 (≈ 2.99 µM) | 15.6 (≈ 47.5 µM) | > 31.3 | 1.95 (≈ 5.94 µM) | 3.9 (≈ 11.9 µM) | 15.6 (≈ 47.5 µM) | 3.9 (≈ 11.9 µM) |
| O=C(NNc1cc(Cl)cc(Cl)c1)c1cnccn1 [Compound 9j] |  |  |  |  |  |  |  | 3.9 (≈ 13.8 µM) | 3.9 (≈ 13.8 µM) | 7.8 (≈ 27.6 µM) | 1.95 (≈ 6.89 µM) | 1.95 (≈ 6.89 µM) | 3.9 (≈ 13.8 µM) | 0.49 (≈ 1.73 µM) |
| O=C(NNc1ccc(Cl)cc1)c1ncc(F)cc1F [Compound 7e] | 3.9 | 3.9 | 1.95 | 0.49 | 7.8 | 1.95 | 3.9 |  |  |  |  |  |  |  |
| O=C(NNc1ccc(Cl)cc1)c1ccc(F)cc1F [Compound 1e] | 15.6 | 15.6 | 7.8 | 1.95 | 3.9 | 7.8 | 1.95 |  |  |  |  |  |  |  |
| COc1ccc(NNC(=O)c2cccc(F)n2)cc1 [Compound 5f] |  |  |  |  |  |  |  | 0.98 (≈ 3.75 µM) | 1.95 (≈ 7.46 µM) | 0.98 (≈ 3.75 µM) | 0.98 (≈ 3.75 µM) | 1.95 (≈ 7.46 µM) | 0.98 (≈ 3.75 µM) | 0.24 (≈ 0.919 µM) |
| O=C(NNc1ccc(Cl)cc1)c1ccc(F)cn1 [Compound 3e] | 1.95 | 1.95 | 1.95 | 1.95 | 3.9 | 0.98 | 1.95 |  |  |  |  |  |  |  |
| O=C(NNc1cc(F)ccc1F)c1ccc(F)cc1F [Compound 1h] |  |  |  |  |  |  |  | 31.3 (≈ 110 µM) | 15.6 (≈ 54.9 µM) | 31.3 (≈ 110 µM) | 31.3 (≈ 110 µM) | 31.3 (≈ 110 µM) | 31.3 (≈ 110 µM) | 3.9 (≈ 13.7 µM) |
| O=C(NNc1ccc(F)cc1F)c1cccc(F)n1 [Compound 5g] |  |  |  |  |  |  |  | 1.95 (≈ 7.3 µM) | 1.95 (≈ 7.3 µM) | 1.95 (≈ 7.3 µM) | 1.95 (≈ 7.3 µM) | 3.9 (≈ 14.6 µM) | 0.98 (≈ 3.67 µM) | 0.98 (≈ 3.67 µM) |
| O=C(NNc1cc(F)ccc1F)c1ccccn1 [Compound 2h] |  |  |  |  |  |  |  | 3.9 (≈ 15.6 µM) | 1.95 (≈ 7.82 µM) | 1.95 (≈ 7.82 µM) | 1.95 (≈ 7.82 µM) | 0.98 (≈ 3.93 µM) | 0.98 (≈ 3.93 µM) | 0.12 (≈ 0.482 µM) |
| O=C(NNc1ccc(F)cc1F)c1ccc(F)cc1F [Compound 1g] |  |  |  |  |  |  |  | 3.9 (≈ 13.7 µM) | 1.95 (≈ 6.86 µM) | > 31.3 | 1.95 (≈ 6.86 µM) | 3.9 (≈ 13.7 µM) | 0.98 (≈ 3.45 µM) | 1.95 (≈ 6.86 µM) |
| COc1cccc(NNC(=O)c2ccc(Br)cn2)c1 [Compound 4c] |  |  |  |  |  |  |  | 0.49 (≈ 1.52 µM) | 0.98 (≈ 3.04 µM) | 1.95 (≈ 6.05 µM) | 1.95 (≈ 6.05 µM) | 3.9 (≈ 12.1 µM) | 0.98 (≈ 3.04 µM) | 0.98 (≈ 3.04 µM) |
| COc1cccc(NNC(=O)c2nc(F)ccc2F)c1 [Compound 8c] |  |  |  |  |  |  |  | 3.9 (≈ 14 µM) | 1.95 (≈ 6.98 µM) | 3.9 (≈ 14 µM) | 1.95 (≈ 6.98 µM) | 7.8 (≈ 27.9 µM) | 1.95 (≈ 6.98 µM) | 0.98 (≈ 3.51 µM) |
| O=C(NNc1ccc(F)cc1)c1nc(F)ccc1F [Compound 8d] |  |  |  |  |  |  |  | 0.98 (≈ 3.67 µM) | 0.98 (≈ 3.67 µM) | 0.98 (≈ 3.67 µM) | 0.98 (≈ 3.67 µM) | 0.98 (≈ 3.67 µM) | 0.49 (≈ 1.83 µM) | 0.24 (≈ 0.898 µM) |
| O=C(NNc1cccc(Cl)c1)c1cnccn1 [Compound 9b] |  |  |  |  |  |  |  | 1.95 (≈ 7.84 µM) | 1.95 (≈ 7.84 µM) | 7.8 (≈ 31.4 µM) | 0.98 (≈ 3.94 µM) | 3.9 (≈ 15.7 µM) | 0.98 (≈ 3.94 µM) | 0.24 (≈ 0.965 µM) |
| O=C(NNc1cccc(F)c1)c1cccc(Br)n1 [Compound 6a] | 1.95 | 1.95 | 3.9 | 3.9 | 7.8 | 3.9 | 0.49 |  |  |  |  |  |  |  |
| O=C(NNc1cccc(Cl)c1)c1ccc(F)cc1F [Compound 1b] |  |  |  |  |  |  |  | 7.8 (≈ 27.6 µM) | 7.8 (≈ 27.6 µM) | 7.8 (≈ 27.6 µM) | 3.9 (≈ 13.8 µM) | 15.6 (≈ 55.2 µM) | 3.9 (≈ 13.8 µM) | 1.95 (≈ 6.9 µM) |
| O=C(NNc1ccc(Cl)cc1)c1nc(F)ccc1F [Compound 8e] | 3.9 | 7.8 | 3.9 | >31.3 | 7.8 | 3.9 | 3.9 |  |  |  |  |  |  |  |
| O=C(NNc1ccc(F)cc1F)c1ccccn1 [Compound 2g] |  |  |  |  |  |  |  | 0.98 (≈ 3.93 µM) | 1.95 (≈ 7.82 µM) | 31.3 (≈ 126 µM) | 0.49 (≈ 1.97 µM) | 0.98 (≈ 3.93 µM) | 0.49 (≈ 1.97 µM) | 0.12 (≈ 0.482 µM) |
